The results in this text go back to patent US20230093861A1, “RAPAMYCIN ANALOGS AS MTOR INHIBITORS” (Revolution Medicines, Inc., priority 2017, published 2023).

In one experiment the test system is P-Akt (S473). The experiment can be described thus: Cell based AlphaLISA assay, inhibition of P-Akt (S473) (mTORC2 substrate phosphorylation) in MDA-MB-468 cells. The following applies: Homo sapiens, AlphaLISA, two to four hours at 37° C., read-out: pIC50 for Inhibition of mTORC1 and mTORC2 Substrate Phosphorylation, p-AKT 1/2/3 -(S473) (converted). The method in brief: (§1)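 IC50s come from control-normalized curve fits of duplicate Alpha signals. Cell lysates were probed with SureFire Ultra kits for mTORC1 substrates 4E-BP1 T37/46 and P70S6K T389 and mTORC2 substrate Akt S473 in MDA-MB-468 cells exposed to inhibitor.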

For the next experiment, the system named is P-P70S6K (T389). Kind of experiment: Cell based AlphaLISA assay, inhibition of P-P70S6K (T389) (mTORC1 substrate phosphorylation) in MDA-MB-468 cells. The following applies: Homo sapiens, 4 h, AlphaLISA, two to four hours at 37° C., read-out: pIC50 for Inhibition of mTORC1 and mTORC2 Substrate Phosphorylation, P-P70S6K-(T389) (converted). The method in brief: as §1

In another experiment the test system is P-4E-BP1 (T37/46). Kind of experiment: Cell based AlphaLISA assay, inhibition of P-4E-BP1 (T37/46) (mTORC1 substrate phosphorylation) in MDA-MB-468 cells. To be noted: Homo sapiens, AlphaLISA, two to four hours at 37° C., read-out: pIC50 for Inhibition of mTORC1 and mTORC2 Substrate Phosphorylation, P-4E-BP1-(T37/46) (converted). In outline: as §1

Read-outs that look alike come from different tables or passages of the source.

In the case of `CO[C@H]1C[C@@H]2CC[C@@H](C)[C@@](O)(O2)C(=O)C(=O)N2CCCC[C@H]2C(=O)O[C@H]([C@H](C)C[C@@H]2CC[C@@H](OCCCCc3cn(CCOCCOCCOCCOCCOCCOCCC(=O)N4CCC(Cn5nc(-c6ccc7oc(N)nc7c6)c6c(N)ncnc65)CC4)nn3)[C@H](OC)C2)CC(=O)[C@H](C)/C=C(\C)[C@@H](O)[C@@H](OC)C(=O)[C@H](C)C[C@H](C)/C=C/C=C/C=C/1C` [Example 91], the IC50 in the experiment on P-Akt (S473) (MDA-MB-468, 4 h) is under 3.16 nM; in the experiment with P-P70S6K (T389), under 1 nM; in the experiment with P-4E-BP1 (T37/46) (MDA-MB-468, 4 h), under 3.16 nM.

With `CO[C@H]1C[C@@H]2CC[C@@H](C)[C@@](O)(O2)C(=O)C(=O)N2CCCC[C@H]2C(=O)O[C@H]([C@H](C)C[C@@H]2CC[C@@H](OCCCCc3cn(CCOCCOCCOCCOCCOCCOCCOCCOCCC(=O)N4CCc5cc(Cn6nc(-c7ccc8oc(N)nc8c7)c7c(N)ncnc76)ccc5C4)nn3)[C@H](OC)C2)C[C@@H](OC)[C@H](C)/C=C(\C)[C@@H](O)[C@@H](OC)C(=O)[C@H](C)C[C@H](C)/C=C/C=C/C=C/1C` [Example 92], the IC50 with P-Akt (S473) (4 h) is 31.6 to 1000 nM; with P-P70S6K (T389), under 1 nM; with P-4E-BP1 (T37/46) (4 h) it was 3.16 to 31.6 nM.

For the molecule `CO[C@H]1C[C@@H]2CC[C@@H](C)[C@@](O)(O2)C(=O)C(=O)N2CCCC[C@H]2C(=O)O[C@H]([C@H](C)C[C@@H]2CC[C@@H](O)[C@H](OC)C2)C[C@@H](O)[C@H](C)/C=C(\C)[C@@H](O)[C@@H](OC)C(=NOCc2cn(CCOCCOCCOCCOCCOCCOCCC(=O)NCCCCn3nc(-c4cc5cc(O)ccc5[nH]4)c4c(N)ncnc43)nn2)[C@H](C)C[C@H](C)/C=C/C=C/C=C/1C` [Example 93], the IC50 in the experiment with P-Akt (S473) (MDA-MB-468, 4 h) was over 1000 nM; in the experiment with P-P70S6K (T389), 1 to 10 nM; in the experiment on P-4E-BP1 (T37/46) (MDA-MB-468, 4 h), 3.16 to 31.6 nM.

For `CO[C@H]1C[C@@H]2CC[C@@H](C)[C@@](O)(O2)C(=O)C(=O)N2CCCC[C@H]2C(=O)O[C@H]([C@H](C)C[C@@H]2CC[C@@H](O)[C@H](OC)C2)C[C@@H](O)[C@H](C)/C=C(\C)[C@@H](O)[C@@H](OC)C(=NOCc2cn(CCOCCOCCOCCOCCOCCOCCOCCOCCC(=O)NCCCCn3nc(-c4cc5cc(O)ccc5[nH]4)c4c(N)ncnc43)nn2)[C@H](C)C[C@H](C)/C=C/C=C/C=C/1C` [Example 94], the IC50 was over 1000 nM in the experiment on P-Akt (S473) (MDA-MB-468, 4 h); 1 to 10 nM with P-P70S6K (T389); 3.16 to 31.6 nM in the experiment with P-4E-BP1 (T37/46) (MDA-MB-468, 4 h).

Take `CO[C@H]1C[C@@H]2CC[C@@H](C)[C@@](O)(O2)C(=O)C(=O)N2CCCC[C@H]2C(=O)O[C@H]([C@H](C)C[C@@H]2CC[C@@H](OCCCCc3cn(CCOCCOCCOCCOCCOCCOCCOCCOCCC(=O)N4CCN(c5cc(-n6nc(-c7ccc8oc(N)nc8c7)c7c(N)ncnc76)ncn5)CC4)nn3)[C@H](OC)C2)CC(=O)[C@H](C)/C=C(\C)[C@@H](O)[C@@H](OC)C(=O)[C@H](C)C[C@H](C)/C=C/C=C/C=C/1C` [Example 95]: the IC50 in the experiment on P-Akt (S473) (MDA-MB-468, 4 h) was 3.16 to 31.6 nM; in the experiment on P-P70S6K (T389), under 1 nM; in the experiment on P-4E-BP1 (T37/46) (MDA-MB-468, 4 h), under 3.16 nM.

`CO[C@H]1C[C@@H]2CC[C@@H](C)[C@@](O)(O2)C(=O)C(=O)N2CCCC[C@H]2C(=O)O[C@H]([C@H](C)C[C@@H]2CC[C@@H](OCCCCc3cn(CCOCCOCCOCCOCCOCCOCCOCCOCCC(=O)NCCS(=O)(=O)c4ccc(C(=O)N5CCOc6ccc(-c7ccc(N)nc7)cc6C5)c(C)c4F)nn3)[C@H](OC)C2)CC(=O)[C@H](C)/C=C(\C)[C@@H](O)[C@@H](OC)C(=O)[C@H](C)C[C@H](C)/C=C/C=C/C=C/1C` [Example 96]: the IC50 is 3.16 to 31.6 nM in the experiment with P-Akt (S473) (MDA-MB-468, 4 h); under 1 nM with P-P70S6K (T389); under 3.16 nM with P-4E-BP1 (T37/46) (MDA-MB-468, 4 h).

For `CO[C@H]1C[C@@H]2CC[C@@H](C)[C@@](O)(O2)C(=O)C(=O)N2CCCC[C@H]2C(=O)O[C@H]([C@H](C)C[C@@H]2CC[C@@H](OCCCCc3cn(CCOCCOCCOCCOCCOCCOCCOCCOCCOCCOCCOCCOCCOCCOCCOCCOCCOCCOCCOCCOCCOCCOCCOCCOCCC(=O)NCCCCn4nc(-c5ccc6oc(N)nc6c5)c5c(N)ncnc54)nn3)[C@H](OC)C2)CC(=O)[C@H](C)/C=C(\C)[C@@H](O)[C@@H](OC)C(=O)[C@H](C)C[C@H](C)/C=C/C=C/C=C/1C` [Example 97], the IC50 was 3.16 to 31.6 nM with P-Akt (S473) (MDA-MB-468, 4 h); 1 to 10 nM in the experiment with P-P70S6K (T389); 3.16 to 31.6 nM in the experiment on P-4E-BP1 (T37/46) (MDA-MB-468, 4 h).

As for `CO[C@H]1C[C@@H]2CC[C@@H](C)[C@@](O)(O2)C(=O)C(=O)N2CCCC[C@H]2C(=O)O[C@H]([C@H](C)C[C@@H]2CC[C@@H](OCCCCc3cn(CCOCCOCCOCCOCCNC(=O)CCC(=O)NCCCCn4nc(-c5ccc6oc(N)nc6c5)c5c(N)ncnc54)nn3)[C@H](OC)C2)CC(=O)[C@H](C)/C=C(\C)[C@@H](O)[C@@H](OC)C(=O)[C@H](C)C[C@H](C)/C=C/C=C/C=C/1C` [Example 99], the IC50 was 3.16 to 31.6 nM in the experiment on P-Akt (S473) (MDA-MB-468, 4 h); under 1 nM with P-P70S6K (T389); 3.16 to 31.6 nM in the experiment on P-4E-BP1 (T37/46) (MDA-MB-468, 4 h).

On to `CO[C@H]1C[C@@H]2CC[C@@H](C)[C@@](O)(O2)C(=O)C(=O)N2CCCC[C@H]2C(=O)O[C@H]([C@H](C)C[C@@H]2CC[C@@H](OCCCCc3cn(CCOCCOCCOCCNC(=O)CCCC(=O)NCCCCn4nc(-c5ccc6oc(N)nc6c5)c5c(N)ncnc54)nn3)[C@H](OC)C2)CC(=O)[C@H](C)/C=C(\C)[C@@H](O)[C@@H](OC)C(=O)[C@H](C)C[C@H](C)/C=C/C=C/C=C/1C` [Example 100], for which the IC50 with P-Akt (S473) (MDA-MB-468, 4 h) was 3.16 to 31.6 nM; with P-P70S6K (T389), under 1 nM; in the experiment on P-4E-BP1 (T37/46) (MDA-MB-468, 4 h), 31.6 to 1000 nM.

As to `CO[C@H]1C[C@@H]2CC[C@@H](C)[C@@](O)(O2)C(=O)C(=O)N2CCCC[C@H]2C(=O)O[C@H]([C@H](C)C[C@@H]2CC[C@@H](OCCCCc3cn(CCOCCOCCOCCOCCNC(=O)CCCC(=O)NCCCCn4nc(-c5ccc6oc(N)nc6c5)c5c(N)ncnc54)nn3)[C@H](OC)C2)CC(=O)[C@H](C)/C=C(\C)[C@@H](O)[C@@H](OC)C(=O)[C@H](C)C[C@H](C)/C=C/C=C/C=C/1C` [Example 101], the IC50 in the experiment with P-Akt (S473) (MDA-MB-468, 4 h) was 3.16 to 31.6 nM; in the experiment on P-P70S6K (T389), under 1 nM; in the experiment on P-4E-BP1 (T37/46) (MDA-MB-468, 4 h) it was under 3.16 nM.

For `CO[C@H]1C[C@@H]2CC[C@@H](C)[C@@](O)(O2)C(=O)C(=O)N2CCCC[C@H]2C(=O)O[C@H]([C@H](C)C[C@@H]2CC[C@@H](OCCCCc3cn(CCOCCOCCOCCNC(=O)CCCCC(=O)NCCCCn4nc(-c5ccc6oc(N)nc6c5)c5c(N)ncnc54)nn3)[C@H](OC)C2)CC(=O)[C@H](C)/C=C(\C)[C@@H](O)[C@@H](OC)C(=O)[C@H](C)C[C@H](C)/C=C/C=C/C=C/1C` [Example 102], the IC50 with P-Akt (S473) (MDA-MB-468, 4 h) was 3.16 to 31.6 nM; with P-P70S6K (T389), under 1 nM; with P-4E-BP1 (T37/46) (MDA-MB-468, 4 h) it was 3.16 to 31.6 nM.

Consider `CO[C@H]1C[C@@H]2CC[C@@H](C)[C@@](O)(O2)C(=O)C(=O)N2CCCC[C@H]2C(=O)O[C@H]([C@H](C)C[C@@H]2CC[C@@H](OCCCCc3cn(CCOCCOCCOCCOCCNC(=O)CCCCC(=O)NCCCCn4nc(-c5ccc6oc(N)nc6c5)c5c(N)ncnc54)nn3)[C@H](OC)C2)CC(=O)[C@H](C)/C=C(\C)[C@@H](O)[C@@H](OC)C(=O)[C@H](C)C[C@H](C)/C=C/C=C/C=C/1C` [Example 103], for which the IC50 in the experiment on P-Akt (S473) (MDA-MB-468, 4 h) is 3.16 to 31.6 nM; in the experiment with P-P70S6K (T389), under 1 nM; in the experiment with P-4E-BP1 (T37/46) (MDA-MB-468, 4 h), under 3.16 nM.

`CO[C@H]1C[C@@H]2CC[C@@H](C)[C@@](O)(O2)C(=O)C(=O)N2CCCC[C@H]2C(=O)O[C@H]([C@H](C)C[C@@H]2CC[C@@H](O)[C@H](OC)C2)C[C@@H](OC)[C@H](C)/C=C(\C)[C@@H](O)[C@@H](OC)C(=NOCc2cn(CCOCCOCCOCCOCCNC(=O)CCCC(=O)NCCCCn3nc(-c4ccc5oc(N)nc5c4)c4c(N)ncnc43)nn2)[C@H](C)C[C@H](C)/C=C/C=C/C=C/1C` [Example 104]: the IC50 in the experiment with P-Akt (S473) (MDA-MB-468, 4 h) was 31.6 to 1000 nM; with P-P70S6K (T389) it was 1 to 10 nM; with P-4E-BP1 (T37/46) (MDA-MB-468, 4 h) it was 31.6 to 1000 nM.
